# Reference: US7241878B1, “Modified cellulose synthase gene from Arabidopsis thaliana confers herbicide resistance to plants” (U.S. Department of Energy, priority 1999, dated 2007)
# Assays:
# [1] = tested on: ixr1-1 and ixr1-2 mutant plants; assay: growth analysis under isoxaben spray, ixr1 mutant plants; conditions: 2.0 μM isoxaben
# Protocol: (§1) Seeds from wild-type Col and Ler, ixr1-1 and ixr1-2 homozygous mutants and F1- and F2-seeds were germinated again and treated as described using 2.0 μM isoxaben in the solution.
# [2] = tested on: seed germination, mitosis, respiration, photosynthesis, and lipid and RNA synthesis; conditions: cited from earlier work
# [3] = tested on: wild-type Col and Ler plants; assay: growth analysis under isoxaben spray, wild-type plants; conditions: 2.0 μM isoxaben in the spray solution
# Protocol: as §1
# [4] = tested on: Brassica napus; conditions: in vivo; read-out: I50 for Brassica napus; cited from earlier work
# [5] = tested on: cellulose biosynthesis; conditions: compared with dichlobenil, another cellulose synthesis inhibitor; cited from earlier work
# [6] = tested on: ixr1-1-, ixr1-2- and wild-type Arabidopsis plants; assay: isoxaben-resistance pilot screen, spraying of soil-grown plants; type: in vivo, Arabidopsis thaliana; conditions: sprayed every 3 days from seedling stage, 1 ml/6 cm^2 soil surface, 0.025% DMSO
# Protocol: Seeds from homozygous isoxaben-resistant mutants ixr1-1 (DH47) and ixr1-2 (DH48) (Heim et al., 1989) were obtained from the Arabidopsis Biological Resource Center, Columbus, Ohio (ABRC stock numbers CS 6201 and CS 6202). Seeds were vernalized for five days in 0.15% water agar at 6° C. prior to planting in a commercial peat-vermiculite-perlite mix (ProMix HP with a 1 cm top-layer of ProMix PGX, Premier Horticulture Inc., Red Hill, Pa., Canada). Plants were grown in the greenhouses of Carnegie Institution of Washington, Department of Plant Biology, Stanford, Calif. between July 1998 and June 1999. Seeds from self-pollinated ixr1-1 and ixr1-2 mutants were collected separately and used for further experiments.
# Isoxaben (95%, N-3-[1-ethyl-1-methyl-propyl]-5-isoxazolyl-2, 6-dimethoxybenzamide) was graciously supplied by DowElanco (Indianapolis, Ind.) and was made up as a concentrated dimethylsulfoxide (DMSO) stock solution and used at concentrations ranging from 0.03 to 10.0 μM. The final concentration of DMSO was always 0.025%. Control cultures without isoxaben contained the same amount of DMSO as the isoxaben-treated cultures; no effect of DMSO was noted.
# [7] = tested on: wild type Arabidopsis; conditions: 12 μM; cited from earlier work
# [8] = tested on: ixr1-1 mutant; conditions: 12 μM; cited from earlier work
# [9] = tested on: cellulose synthesis in algae and plants; conditions: cited from earlier work
smiles,measurement,setting,value
"CCC(C)(CC)c1cc(NC(=O)c2c(OC)cccc2OC)on1 [isoxaben, N-3-[1-ethyl-1-methyl-propyl]-5-isoxazolyl-2,6-dimethoxybenzamide]",growth of heterozygous mutant F1-plants,"[1]; heterozygous F1, compared to the homozygous mutants",clearly reduced growth
same,growth of homozygous mutants,[1]; homozygous ixr1-1 and ixr1-2 (ixr1-1 grew better than ixr1-2),grew well
same,effect on other cellular processes,[2],unaffected
same,growth of wild-type plants,[3],didn't grow at all
same,IC50,[4],20 nM
same,acts at lower concentrations than dichlobenil (factor),[5],< 40 ×
same,concentration in the application solution high enough to discriminate resistant and susceptible plants,[6],1.0 to 3.0 µM
"CC(C)(C)NC(=O)OC1SCN(c2cccc(C(F)(F)F)c2)C1=O (stereo not shown) [TZ, 5-tert-butyl-carbamoyloxy-3-(3-trifluromethyl) phenyl-4-thiazolidnone]",effect on wild type Arabidopsis,[7],kills
same,reduction of growth of the ixr1-1 mutant,[8],50%
"N#Cc1c(Cl)cccc1Cl [DCB, 2,6-dichlorobenzonitrile]",inhibition of cellulose synthesis,[9],effective and specific inhibitor
